The results in this text go back to EP1144368B1, “ACETYLENIC ALPHA-AMINO ACID-BASED SULFONAMIDE HYDROXAMIC ACID TACE INHIBITORS” (priority 1999, dated 2000).

The inhibition is the relative decrease from the control value, in per cent.

Structures are written as SMILES. Counter-ions that a name gives are not always drawn.

One experiment concerns THP-1 cells. Nature of the experiment: THP-1 Soluble Protein Assay (LPS-stimulated; ELISA of TNF-a, TNF-R p75/80, TNF-R p55/60, IL-8). The experiment is classed as cell-based, human. The following applies: 3 µM. For orientation: An ELISA detects its analyte on a solid surface through an enzyme-linked reagent.
As for `CC#CCOc1ccc(S(=O)(=O)N2CC[S+]([O-])C(C)(C)C2C(=O)NO)cc1` (single isomer, unassigned) [Example 255], the “THP % inhibition @ 3 µM” value is reported as 95%.

The experiment is the same for the next values; noted with them: Homo sapiens, THP-1, 3 µM; read-out: THP % Inhibition @ 3µM.
On to `CC#CCOc1ccc(S(=O)(=O)N2CCCN(C(=O)c3ccccc3)CC2C(=O)NO)cc1` (stereo not drawn) [Example 49, 4-Benzoyl-1-(4-but-2-ynyloxy-benzenesulfonyl)-[1,4]diazepane-2-carboxylic acid hydroxyamide], for which the inhibition at 3 µM was 32%.

The same experiment, now with this note: Homo sapiens, THP-1, read-out: THP % inhibition @ 3 µM.
On to `CC1(C)SCCN(S(=O)(=O)c2ccc(OCC#CCO)cc2)C1C(=O)NO` (stereo not drawn) [Example 61, 4-[4-(4-Hydroxy-but-2-ynyloxy)-benzenesulfonyl]-2,2-dimethyl-thiomorpholine-3-carboxylic acid hydroxyamide], for which the inhibition at 3 µM was found to be 89%.

Still in this experiment, the particulars now being: Homo sapiens, THP-1, read-out: THP % inhibition @ 3 µM, 3 µM.
Take `CC#CCOc1ccc(S(=O)(=O)N2CC[S+]([O-])C(C)(C)C2C(=O)NO)cc1` (single isomer, unassigned) [Example 256]: the inhibition at 3 µM came out at 92%.

Regarding `CC#CCOc1ccc(S(=O)(=O)N(C)C(C(=O)NO)C(C)C)cc1` (stereo not drawn) [Example 9, 2-[(4-But-2-ynyloxy-benzenesulfonyl)-methyl-amino]-N-hydroxy-3-methyl-butyramide], the inhibition at 3 µM was determined as 94%.

For `CC#CCOc1ccc(S(=O)(=O)N(Cc2cccnc2)C(C)C(=O)NO)cc1` (stereo not drawn) [Example 33, 2-[(4-But-2-ynyloxy-benzenesulfonyl)-pyridin-3-ylmethyl-amino]-N-hydroxy-propionamide hydrochloride], the inhibition at 3 µM came out at 80%.

As to `CCCCC#CCOc1ccc(S(=O)(=O)N2CCSC(C)(C)C2C(=O)NO)cc1` (stereo not drawn) [Example 40, 4-(4-Hept-2-ynyloxy-benzenesulfonyl)-2,2-dimethyl-thiomorpholine-3-carboxylic acid hydroxyamide], the inhibition at 3 µM stood at 82%.

Regarding `CC#CCOc1ccc(S(=O)(=O)N2Cc3ccccc3CC2C(=O)NO)cc1` (stereo not drawn) [Example 41, 2-(4-But-2-ynyloxy-benzenesulfonyl)-1,2,3,4-tetrahydro-isoquinoline-3-carboxylic acid hydroxyamide], the inhibition at 3 µM was found to be 93%.

With `CC#CCOc1ccc(S(=O)(=O)N2CCN(C)CC2C(=O)NO)cc1` (stereo not drawn) [Example 56, 1-(4-But-2-ynyloxy-benzenesulfonyl)-4-methyl-piperazine-2-carboxylic acid hydroxyamide hydrochloride], the inhibition at 3 µM came to 32%.

With `CC#CCOc1ccc(S(=O)(=O)N2CCN(C(=O)OC(C)(C)C)CC2C(=O)NO)cc1` (stereo not drawn) [Example 58, 4-(4-But-2-ynyloxy-benzenesulfonyl)-3-hydroxycarbamoyl-piperazine-1-carboxylic acid tert-butyl ester], the inhibition at 3 µM was 79%.

Turning to `CC#CCOc1ccc(S(=O)(=O)N(CC)C(C(=O)NO)C(C)C)cc1` (stereo not drawn) [Example 108, 2-[(4-But-2-ynyloxy-benzenesulfonyl)-ethyl-amino]-N-hydroxy-3-methyl-butyramide], the inhibition at 3 µM is 76%.

For the molecule `C#CCN(C(C(=O)NO)C(C)C)S(=O)(=O)c1ccc(OCC#CC)cc1` (stereo not drawn) [Example 109, 2-[{[4-(2-Butynyloxy)phenyl]sulfonyl}(2-propynyl)amino]-N-hydroxy-3-methylbutanamide], the inhibition at 3 µM worked out at 85%.

For the molecule `CC#CCOc1ccc(S(=O)(=O)N(CCC)C(C(=O)NO)C(C)C)cc1` (stereo not drawn) [Example 110, 2-[(4-But-2-ynyloxy-benzenesulfonyl)-propyl-amino]-N-hydroxy-3-methyl-butyramide], the inhibition at 3 µM was 47%.

As for `CC#CCOc1ccc(S(=O)(=O)N(CCCc2ccccc2)C(C(=O)NO)C(C)C)cc1` (stereo not drawn) [Example 111, 2-[(4-But-2-ynyloxy-benzenesulfonyl)-(3-phenyl-propyl)-amino]-N-hydroxy-3-methyl-butyramide], the inhibition at 3 µM was 35%.

Take `CC#CCOc1ccc(S(=O)(=O)N(CC2CC2)C(C(=O)NO)C(C)C)cc1` (stereo not drawn) [Example 112, 2-[(4-But-2-ynyloxy-benzenesulfonyl)-cyclopropylmethyl-amino]-N-hydroxy-3-methyl-butyramide]: the inhibition at 3 µM came to 50%.

`CC#CCOc1ccc(S(=O)(=O)N(CC(C)C)C(C(=O)NO)C(C)C)cc1` (stereo not drawn) [Example 113, 2-[(4-But-2-ynyloxy-benzenesulfonyl)-isobutyl-amino]-N-hydroxy-3-methyl-butyramide]: the inhibition at 3 µM was found to be 0%.

Consider `CC#CCOc1ccc(S(=O)(=O)N(Cc2cccnc2)C(C(=O)NO)C(C)C)cc1` (stereo not drawn) [Example 114, 2-[(4-But-2-ynyloxy-benzenesulfonyl)-pyridin-3-ylmethyl-amino]-N-hydroxy-3-methyl-butyramide], for which the inhibition at 3 µM is 75%.

In the case of `CC#CCOc1ccc(S(=O)(=O)N(C)C(C(=O)NO)C2CCCCC2)cc1` (stereo not drawn) [Example 115, 2-[(4-But-2-ynyloxy-benzenesulfonyl)-methyl-amino]-2-cyclohexyl-N-hydroxy-acetamide], the inhibition at 3 µM stood at 89%.

On to `CC#CCOc1ccc(S(=O)(=O)N(Cc2cccnc2)[C@@H](C(=O)NO)C2CCCCC2)cc1` [Example 116, 2-[(4-But-2-ynyloay-benzenesulfonyl)-pyridin-3-ylmethyl-amino]-2-cyclohexyl-N-hydroxy-acetamide], for which the inhibition at 3 µM amounted to 75%.

For `CC#CCOc1ccc(S(=O)(=O)N(Cc2ccc(OCCN3CCCCC3)cc2)C(C(=O)NO)C2CCCCC2)cc1` (stereo not drawn) [Example 117, 2-{(4-But-2-ynyloxy-benzenesulfonyl)-[4-(2-piperidin-1-yl-ethoxy)-benzyl]-amino}-2-cyclohexyl-N-hydroxy-acetamide], the inhibition at 3 µM was 88%.

Consider `CC#CCOc1ccc(S(=O)(=O)N(CCCN(CC)CC)C(C(=O)NO)C(C)C)cc1` (stereo not drawn) [Example 118, 2-{{[4-(2-Butynyloxy)phenyl]sulfonyl}[3-(diethylamino)propyl]amino}-N-hydroxy-3-methylbutanamide], for which the inhibition at 3 µM came out at 77%.

Turning to `CC#CCOc1ccc(S(=O)(=O)N(CCCN2CCOCC2)C(C(=O)NO)C(C)C)cc1` (stereo not drawn) [Example 119, 2-{{[4-(2-Butynyloxy)phenyl]sulfonyl}[3-(4-morpholinyl)propyl]amino}-N-hydroxy-3-methylbutanamide], the inhibition at 3 µM amounted to 61%.

`CC#CCOc1ccc(S(=O)(=O)N(CCCN2CCN(C)CC2)C(C(=O)NO)C(C)C)cc1` (stereo not drawn) [Example 120, 2-{{[4-(2-Butynyloxy)phenyl]sulfonyl}[3-(4-methyl-1-piperazinyl)propyl]amino}-N-hydroxy-3-methylbutanamide hydrochloride]: the inhibition at 3 µM came out at 61%.

With `CC#CCOc1ccc(S(=O)(=O)N(CCCCN(CC)CC)C(C(=O)NO)C(C)C)cc1` (stereo not drawn) [Example 121, 2-{{[4-(2-Butynyloxy)phenyl]sulfonyl}[4-(diethylamino)butyl]amino}-N-hydroxy-3-methylbutanamide], the inhibition at 3 µM turned out to be 65%.

Take `CC#CCOc1ccc(S(=O)(=O)N(CCN2CCOCC2)C(C(=O)NO)C(C)C)cc1` (stereo not drawn) [Example 123, 2-[[[4-(2-Butynyloxy)phenyl]sulfonyl][2-(4-morpholinyl)ethyl]amino]-N-hydroxy-3-methylbutanamide]: the inhibition at 3 µM amounted to 35%.

Regarding `CC#CCOc1ccc(S(=O)(=O)N(CCN2CCOCC2)CC(=O)NO)cc1` [Example 124, 2-[{[4-(But-2-ynyloxy)phenyl]sulfonyl}(2-morpholin-4-ylethyl)amino]-N-hydroxyacetamide hydrochloride], the inhibition at 3 µM turned out to be 24%.

As for `CC#CCOc1ccc(S(=O)(=O)N(CC#CCN2CCN(C)CC2)C(C(=O)NO)C(C)C)cc1` (stereo not drawn) [Example 125, 2-{{[4-(2-Butynyloxy)phenyl]sulfonyl}[4-(4-methyl-1-piperazinyl)-2-butynyl]amino}-N-hydroxy-3-methylbutanamide], the inhibition at 3 µM is 72%.

In the case of `CC#CCOc1ccc(S(=O)(=O)N(CC#CCNC)C(C(=O)NO)C(C)C)cc1` (stereo not drawn) [Example 127, 2-{{[4-(2-Butynyloxy)phenyl]sulfonyl}[4-(methylamino)-2-butynyl]amino}-N-hydroxy-3-methylbutanamide], the inhibition at 3 µM is 83%.

In the case of `CC#CCOc1ccc(S(=O)(=O)N(C)[C@@H](C(=O)NO)C2CCC(N(CC)CC)CC2)cc1` (stereo partly drawn) [Example 128, ((2R)-{[4-(2-Butynyloxy)phenyl]sulfonyl}(methyl)amino)[(4-diethylamino)cyclohexyl]-N-hydroxyethamide], the inhibition at 3 µM worked out at 51%.

For the molecule `CC#CCOc1ccc(S(=O)(=O)N(C)[C@@H](C(=O)NO)[C@H]2CC[C@H](O)CC2)cc1` [Example 130], the inhibition at 3 µM came to 92%.

With `CC#CCOc1ccc(S(=O)(=O)N(C)CC(=O)NO)cn1` [Example 131, 2-[(6-But-2-ynyloxy-pyridine-3-sulfonyl)-methyl-amino]-N-hydroxy-acetamide], the inhibition at 3 µM is 18%.

As to `CC#CCOc1ccc(S(=O)(=O)N(CC#CCN2CCN(C)CC2)C(C)C(=O)NO)cc1` (stereo not drawn) [Example 135, 2-{[[4-(2-butynyloxy)phenyl]sulfonyl][4-(4-methyl-1-piperazinyl)-2-butynylamino]}-N-hydroxypropanamide], the inhibition at 3 µM was found to be 76%.

For `CC#CCOc1ccc(S(=O)(=O)N(C)C2(C(=O)NO)CCCCC2)cc1` [Example 136, 1-[{[4-(2-Butynyloxy)phenyl]sulfonyl}(methyl)amino] -N-hydroxycyclohexanecarboxamide], the inhibition at 3 µM is 0%.

For the molecule `CC#CCOc1ccc(S(=O)(=O)N(Cc2cccnc2)C2(C(=O)NO)CCCCC2)cc1` [Example 137, 1-[{[4-(2-Butynyloxy)phenyl]sulfonyl}(3-pyridinylmethyl)amino] N-hydroxycyclohexanecarboxamide], the inhibition at 3 µM came to 0%.

For the molecule `CC#CCOc1ccc(S(=O)(=O)N(C)C(C(=O)NO)C(C)(C)SCCN2CCOCC2)cc1` (stereo not drawn) [Example 140, 2-({[4-(2-Butynyloxy)phenyl]sulfonyl)(methyl)amino]-N-hydroxy-3 methyl-3-[(2(4-morpholinylethyl)sulfanyl]-butanamide hydrochloride], the inhibition at 3 µM is 80%.

`CC#CCOc1ccc(S(=O)(=O)N(C)C(C(=O)NO)C(C)(C)SCCN2CCN(C)CC2)cc1` (stereo not drawn) [Example 141]: the inhibition at 3 µM was 86%.
